Test results: patent US8613914B2, “Peptidomimetic sulfamide compounds and antiviral uses thereof” (Novartis AG, priority 2009, dated 2013)

biological target: HCV NS3-4A serine protease (full-length NS3-4A protein) (Hepatitis C virus genotype 1a (isolate 1) (HCV), UniProt P26664); assay: HCV NS3-4A protease assay; assay type: biochemical, HCV genotype 1a; conditions: strain HCV-1, fluorogenic peptide substrate, read-out: Protease assay Ex. 12 IC50
Method: The inhibitory activity of certain compounds of Table A against HCV NS3-4A serine protease is determined in a homogenous assay using the full-length NS3-4A protein (genotype 1a, strain HCV-1) and a commercially available internally-quenched fluorogenic peptide substrate as described by Taliani, M., et al. 1996 Anal. Biochem. 240:60-67, which is incorporated by reference in its entirety.

Sequence of HCV NS3-4A serine protease (full-length NS3-4A protein) (P26664 1027-1657): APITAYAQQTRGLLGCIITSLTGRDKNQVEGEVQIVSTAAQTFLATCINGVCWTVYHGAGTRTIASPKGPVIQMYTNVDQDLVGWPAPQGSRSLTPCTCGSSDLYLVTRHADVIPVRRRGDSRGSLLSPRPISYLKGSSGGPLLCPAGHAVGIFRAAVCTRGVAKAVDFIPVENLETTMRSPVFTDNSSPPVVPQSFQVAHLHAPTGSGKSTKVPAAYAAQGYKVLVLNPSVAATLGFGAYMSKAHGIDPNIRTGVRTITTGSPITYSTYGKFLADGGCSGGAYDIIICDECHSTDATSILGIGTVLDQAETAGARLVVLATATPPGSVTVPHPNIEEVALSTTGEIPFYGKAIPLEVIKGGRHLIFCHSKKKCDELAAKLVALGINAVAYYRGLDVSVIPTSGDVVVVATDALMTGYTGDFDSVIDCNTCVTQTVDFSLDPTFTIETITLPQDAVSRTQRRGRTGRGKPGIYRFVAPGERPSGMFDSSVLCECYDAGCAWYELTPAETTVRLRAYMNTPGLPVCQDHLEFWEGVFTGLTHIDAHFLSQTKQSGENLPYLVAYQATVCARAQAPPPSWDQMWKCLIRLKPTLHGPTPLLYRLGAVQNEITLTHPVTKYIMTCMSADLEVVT
Sequence of HCV NS3-4A serine protease (full-length NS3-4A protein) (P26664 1658-1711 partner): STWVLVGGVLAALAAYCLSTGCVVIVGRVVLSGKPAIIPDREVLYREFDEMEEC

First: C=C[C@@H]1C[C@]1(NC(=O)[C@@H]1C[C@@]2(CN1C(=O)[C@@H](NC(=O)[C@@H](NC(=O)[C@@H]1CCCCN1C(C)C)C1CCCCC1)C(C)(C)C)C(C)(C)C21CCC1)C(=O)NS(=O)(=O)N(CC)CCF [Compound 156, (5R,8S)-7-[(2S)-2-{[(2S)-2-cyclohexyl-2-({[(2S)-1-isopropylpiperidin-2-yl]carbonyl}amino)acetyl]amino}-3,3-dimethylbutanoyl]-N-[(1R,2S)-1-({[ethyl(2-fluoroethyl)amino]sulfonyl}carbamoyl)-2-vinylcyclopropyl]-10,10-dimethyl-7-azadispiro[3.0.4.1]decane-8-carboxamide]
Second: CC[C@@H]1C[C@]1(NC(=O)[C@@H]1C[C@@]2(CN1C(=O)[C@@H](NC(=O)[C@@H](NC(=O)[C@H]1CCCCN1C(C)C)C1CCCCC1)C(C)(C)C)C(C)(C)C21CCC1)C(=O)NS(=O)(=O)N(CC)CC [Compound 121, (5R,8S)-7-[(2S)-2-{[(2S)-2-cyclohexyl-2-({[(2R)-1-isopropylpiperidin-2-yl]carbonyl}amino)acetyl]amino}-3,3-dimethylbutanoyl]-N-[(1R,2R)-1-{[(diethylamino)sulfonyl]carbamoyl}-2-ethylcyclopropyl]-10,10-dimethyl-7-azadispiro[3.0.4.1]decane-8-carboxamide]
The IC50 of the first is 5.4-fold lower: 1.3 nM for the first, 7 nM for the second.

First: C=C[C@@H]1C[C@]1(NC(=O)[C@@H]1C[C@@]2(CN1C(=O)[C@@H](NC(=O)[C@@H](NC(=O)[C@@H]1CCCCN1C(C)C)C(C)C)C(C)C)C(C)(C)C21CCC1)C(=O)NS(=O)(=O)N(CC)CC [Compound 130, (5R,8S)-N-[(1R,2S)-1-{[(diethylamino)sulfonyl]carbamoyl}-2-vinylcyclopropyl]-7-[(2S)-2-{[(2S)-2-({[(2S)-1-isopropylpiperidin-2-yl]carbonyl}amino)-3-methylbutanoyl]amino}-3-methylbutanoyl]-10,10-dimethyl-7-azadispiro[3.0.4.1]decane-8-carboxamide]
Second: C=C[C@@H]1C[C@]1(NC(=O)[C@@H]1C[C@@]2(CN1C(=O)[C@@H](NC(=O)[C@@H](NC(=O)[C@@H]1CCCCN1C(C)C)C1(C)CCCCC1)C(C)(C)C)C(C)(C)C21CCC1)C(=O)NS(=O)(=O)N(CC)CC [Compound 133, (5R,8S)-N-[(1R,2S)-1-{[(diethylamino)sulfonyl]carbamoyl}-2-vinylcyclopropyl]-7-[(2S)-2-{[(2S)-2-({[(2S)-1-isopropylpiperidin-2-yl]carbonyl}amino)-2-(1-methylcyclohexyl)acetyl]amino}-3,3-dimethylbutanoyl]-10,10-dimethyl-7-azadispiro[3.0.4.1]decane-8-carboxamide]
The IC50 of the first is 2.7-fold higher: 8 nM for the first, 3 nM for the second. The second is the more potent here.

Compared with [2H]C([2H])([2H])N(C([2H])([2H])[2H])S(=O)(=O)NC(=O)[C@@]1(NC(=O)[C@@H]2C[C@@]3(CN2C(=O)[C@@H](NC(=O)[C@@H](NC(=O)[C@@H]2CCCCN2C(C)C)C2CCCCC2)C(C)(C)C)C(C)(C)C32CCC2)C[C@H]1C=C [Compound 148, (5R,8S)-7-[(2S)-2-{[(2S)-2-cyclohexyl-2-({[(2S)-1-isopropylpiperidin-2-yl]carbonyl}amino)acetyl]amino}-3,3-dimethylbutanoyl]-N-[(1R,2S)-1-{[(d6-dimethylamino)sulfonyl]carbamoyl}-2-vinylcyclopropyl]-10,10-dimethyl-7-azadispiro[3.0.4.1]decane-8-carboxamide-d6], CC[C@@H]1C[C@]1(NC(=O)[C@@H]1C[C@@]2(CN1C(=O)[C@@H](NC(=O)[C@@H](NC(=O)[C@@H]1CCCCN1C(C)C)C1CCCCC1)C(C)(C)C)C(C)(C)C21CCC1)C(=O)NS(=O)(=O)N(C)C1CC1 [Compound 90, (5R,8S)-7-[(2S)-2-{[(2S)-2-cyclohexyl-2-({[(2S)-1-isopropylpiperidin-2-yl]carbonyl}amino)acetyl]amino}-3,3-dimethylbutanoyl]-N-[(1R,2R)-1-({[cyclopropyl(methyl)amino]sulfonyl}carbamoyl)-2-ethylcyclopropyl]-10,10-dimethyl-7-azadispiro[3.0.4.1]decane-8-carboxamide] is 8.1-fold higher in IC50: 0.8 nM for the first, 6.5 nM for the second.

Compared with C=C[C@@H]1C[C@]1(NC(=O)[C@@H]1C[C@@]2(CN1C(=O)[C@@H](NC(=O)[C@@H](NC(=O)[C@@H]1CCCCN1C(C)C)C(C)(C)C)C1(C)CCOCC1)C(C)(C)C21CCC1)C(=O)NS(=O)(=O)N1CCCC1 [Compound 128, (5R,8S)-7-[(2S)-2-[(N-{[(2S)-1-isopropylpiperidin-2-yl]carbonyl}-3-methyl-L-valyl)amino]-2-(4-methyltetrahydro-2H-pyran-4-yl)acetyl]-10,10-dimethyl-N-{(1R,2S)-1-[(pyrrolidin-1-ylsulfonyl)carbamoyl]-2-vinylcyclopropyl}-7-azadispiro[3.0.4.1]decane-8-carboxamide], C=C[C@@H]1C[C@]1(NC(=O)[C@@H]1C[C@@]2(CN1C(=O)[C@@H](NC(=O)[C@@H](NC(=O)[C@@H]1CCCCN1C(C)C)C1(C)CCCCC1)C(C)(C)C)C(C)(C)C21CCC1)C(=O)NS(=O)(=O)N1CCCC1 [Compound 135, (5R,8S)-7-[(2S)-2-{[(2S)-2-({[(2S)-1-isopropylpiperidin-2-yl]carbonyl}amino)-2-(1-methylcyclohexyl)acetyl]amino}-3,3-dimethylbutanoyl]-10,10-dimethyl-N-{(1R,2S)-1-[(pyrrolidin-1-ylsulfonyl)carbamoyl]-2-vinylcyclopropyl}-7-azadispiro[3.0.4.1]decane-8-carboxamide] is 3.2-fold higher in IC50: 1.4 nM for the first, 4.5 nM for the second.

Going from C=C[C@@H]1C[C@]1(NC(=O)[C@@H]1C[C@@]2(CN1C(=O)[C@@H](NC(=O)[C@@H](NC(=O)[C@@H]1CCCCN1CCF)C(C)(C)C)C(C)(C)C)C(C)(C)C21CCC1)C(=O)NS(=O)(=O)N1CCOCC1 [Compound 8, (5R,8S)-7-[(2S)-2-{[(2S)-2-({[(2S)-1-(2-fluoroethyl)piperidin-2-yl]carbonyl}amino)-3,3-dimethylbutanoyl]amino}-3,3-dimethylbutanoyl]-10,10-dimethyl-N-{(1R,2S)-1-[(morpholin-4-ylsulfonyl)carbamoyl]-2-vinylcyclopropyl}-7-azadispiro[3.0.4.1]decane-8-carboxamide] to CC[C@@H]1C[C@]1(NC(=O)[C@@H]1C[C@@]2(CN1C(=O)[C@@H](NC(=O)[C@@H](NC(=O)[C@@H]1CCCCN1C(C)C)C(C)(C)C)C(C)(C)C)C(C)(C)C21CCC1)C(=O)NS(=O)(=O)N1CCCC1 [Compound 30, (5R,8S)-N-{(1R,2R)-2-ethyl-1-[(pyrrolidin-1-ylsulfonyl)carbamoyl]cyclopropyl}-7-[(2S)-2-{[(2S)-2-({[(2S)-1-isopropylpiperidin-2-yl]carbonyl}amino)-3,3-dimethylbutanoyl]amino}-3,3-dimethylbutanoyl]-10,10-dimethyl-7-azadispiro[3.0.4.1]decane-8-carboxamide], the IC50 falls from 300 nM to 62 nM (4.8-fold). The second is the more potent here.

CCCN(C)S(=O)(=O)NC(=O)[C@@]1(NC(=O)[C@@H]2C[C@@]3(CN2C(=O)[C@@H](NC(=O)[C@@H](NC(=O)[C@@H]2CCCCN2C(C)C)C2CCCCC2)C(C)(C)C)C(C)(C)C32CCC2)C[C@H]1CC [Compound 142, (5R,8S)-7-[(2S)-2-{[(2S)-2-cyclohexyl-2-({[(2S)-1-isopropylpiperidin-2-yl]carbonyl}amino)acetyl]amino}-3,3-dimethylbutanoyl]-N-[(1R,2R)-2-ethyl-1-({[methyl(propyl)amino]sulfonyl}carbamoyl)cyclopropyl]-10,10-dimethyl-7-azadispiro[3.0.4.1]decane-8-carboxamide] and C=C[C@@H]1C[C@]1(NC(=O)[C@@H]1C[C@@]2(CN1C(=O)[C@@H](NC(=O)[C@@H](NC(=O)[C@@H]1CCCN1CC)C1CCCCC1)C(C)(C)C)C(C)(C)C21CCC1)C(=O)NS(=O)(=O)N(C)CCC [Compound 98, (5R,8S)-7-[(2S)-2-{[(2S)-2-cyclohexyl-2-({[(2S)-1-ethylpyrrolidin-2-yl]carbonyl}amino)acetyl]amino}-3,3-dimethylbutanoyl]-10,10-dimethyl-N-[(1R,2S)-1-({[methyl(propyl)amino]sulfonyl}carbamoyl)-2-vinylcyclopropyl]-7-azadispiro[3.0.4.1]decane-8-carboxamide] are within 1.5-fold of each other in IC50: 10 nM for the first, 7 nM for the second.

Compared with C=C[C@@H]1C[C@]1(NC(=O)[C@@H]1C[C@@]2(CN1C(=O)[C@@H](NC(=O)[C@@H](NC(=O)[C@@H]1CCCN1CC)C1CCCCC1)C(C)(C)C)C(C)(C)C21CCC1)C(=O)NS(=O)(=O)N(CC)CCC [Compound 107, (5R,8S)-7-[(2S)-2-{[(2S)-2-cyclohexyl-2-({[(2S)-1-ethylpyrrolidin-2-yl]carbonyl}amino)acetyl]amino}-3,3-dimethylbutanoyl]-N-[(1R,2S)-1-({[ethyl(propyl)amino]sulfonyl}carbamoyl)-2-vinylcyclopropyl]-10,10-dimethyl-7-azadispiro[3.0.4.1]decane-8-carboxamide], [2H]C([2H])([2H])C([2H])([2H])N1CCC[C@H]1C(=O)NC(C(=O)N[C@H](C(=O)N1C[C@]2(C[C@H]1C(=O)N[C@]1(C(=O)NS(=O)(=O)N3CCCC3)C[C@H]1C=C)C(C)(C)C21CCC1)C(C)(C)C)C1CCCCC1 (stereo partly drawn) [Compound 138, (5R,8S)-7-[(2S)-2-{[(2S)-2-cyclohexyl-2-({[(2S)-1-d5-ethylpyrrolidin-2-yl]carbonyl}amino)acetyl]amino}-3,3-dimethylbutanoyl]-10,10-dimethyl-N-{(1R,2S)-1-[(pyrrolidin-1-ylsulfonyl)carbamoyl]-2-vinylcyclopropyl}-7-azadispiro[3.0.4.1]decane-8-carboxamide-d5] is 3-fold lower in IC50: 9 nM for the first, 3 nM for the second.
